What was measured:
[1] = target: T1, mouse odorant receptors (ORs) (Mus musculus, UniProt P23275); test: CRE-luciferase assay of odorant receptor activation (Dual-Glo, Hana3A cells, RTP1S), dose-response EC50; type: cell-based; settings: receptor MOR256-17; read-out: log EC50 of odorant at MOR256-17 (0 = no response) (converted)
T1 construct: OR open reading frames were amplified from genomic DNA; expressed in transfected cells; host or cells: Hana3A cells, co-transfected with RTP1S, CRE-luciferase and pRL-SV40
T1 sequence (P23275 1-312): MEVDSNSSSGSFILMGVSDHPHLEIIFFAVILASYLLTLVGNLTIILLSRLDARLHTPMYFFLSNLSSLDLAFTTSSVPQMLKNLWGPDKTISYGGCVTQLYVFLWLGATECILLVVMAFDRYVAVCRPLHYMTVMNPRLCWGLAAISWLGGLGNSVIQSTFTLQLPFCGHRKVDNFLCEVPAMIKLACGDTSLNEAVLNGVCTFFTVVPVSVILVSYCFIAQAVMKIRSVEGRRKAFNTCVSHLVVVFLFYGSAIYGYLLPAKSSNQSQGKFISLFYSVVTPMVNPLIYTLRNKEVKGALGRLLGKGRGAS

[2] = target: T2, human odorant receptors (ORs) (Homo sapiens, UniProt Q8NHC4); test: as above; type: cell-based; settings: receptor OR10J5; read-out: log EC50 of odorant at OR10J5 (0 = no response) (converted)
T2 construct: OR open reading frames were amplified from genomic DNA; expressed in transfected cells; host or cells: Hana3A cells, co-transfected with RTP1S, CRE-luciferase and pRL-SV40
T2 sequence (Q8NHC4 1-309): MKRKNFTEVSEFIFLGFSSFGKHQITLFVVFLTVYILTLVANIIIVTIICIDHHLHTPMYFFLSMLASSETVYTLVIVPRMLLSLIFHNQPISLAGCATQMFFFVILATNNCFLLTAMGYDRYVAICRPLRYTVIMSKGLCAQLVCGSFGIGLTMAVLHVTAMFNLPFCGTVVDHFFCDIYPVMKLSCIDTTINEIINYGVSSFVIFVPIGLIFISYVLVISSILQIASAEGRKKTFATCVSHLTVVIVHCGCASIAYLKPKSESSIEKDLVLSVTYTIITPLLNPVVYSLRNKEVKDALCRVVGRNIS
Outline: (§1)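 Hana3A cells were co-transfected with Rho-tagged OR, RTP1S, CRE-luciferase and pRL-SV40, then exposed to odorant in CD293 medium for 4 hrs at 37° C. Firefly luminescence was divided by Renilla and normalized as (LN−Lmin)/(Lmax−Lmin) per plate set. Each dose was tested at least three times, and EC50 came from sigmoidal fits.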

[3] = tested on: mouse odorant receptors (ORs); test: as above; type: cell-based; settings: 0 = no response; for log EC50, MOR138-1: receptor MOR138-1; for log EC50, MOR139-1: receptor MOR139-1; for log EC50, MOR189-1: receptor MOR189-1; for log EC50, MOR272-1: receptor MOR272-1; for log EC50, MOR273-1: receptor MOR273-1
MOR107-1 = test: CRE-luciferase assay of odorant receptor activation, enantiomeric pairs; type: cell-based, mouse; settings: CRE-luciferase in Hana3A cells; (+) versus (−) enantiomer; FIG. 6
Text: (§2) Cloning mouse and human ORs. 219 mouse and 245 human odorant receptors were cloned with sequence information from The Olfactory Receptor Database (Healy et al., Chemical Senses 22, 321-6 (1997); herein incorporated by reference in its entirety). […] OR open reading frames were amplified from genomic DNA using proofreading KOD DNA polymerase (Toyobo/Novagen) and subcloned into pCI expression vectors (Promega) containing the first 20 residues of human rhodopsin (Rho tag). The sequences of the cloned receptors were verified by sequencing (3100 Genetic Analyzer, ABI Biosystems). Immunocytochemistry and FACS analysis. […] The intensity of receptor cell surface expression was calculated as the ratio of PE and GFP expression. […] Luminescence was measured using a Wallac Victor 1420 plate reader (Perkin-Elmer). All luminescence values were divided by the Renilla Luciferase activity to control for transfection efficiency in a given well. Normalized luciferase activity was calculated using the formula (LN−Lmin)/(Lmax−Lmin), where LN is the luminescence of firefly luciferase in response to the odorant, Lmin is the minimum luciferase value on a plate or set of plates, and Lmax is the maximum luciferase value on a plate or set of plates. The data was analyzed using Microsoft Excel and GraphPad Prism 4. […]

MOR2-1 = test: as above; type: cell-based, mouse; settings: CRE-luciferase in Hana3A cells; at some doses; compared with the other enantiomer; FIG. 6
Text: OR open reading frames were amplified from genomic DNA using proofreading KOD DNA polymerase (Toyobo/Novagen) and subcloned into pCI expression vectors (Promega) containing the first 20 residues of human rhodopsin (Rho tag). The sequences of the cloned receptors were verified by sequencing (3100 Genetic Analyzer, ABI Biosystems). Immunocytochemistry and FACS analysis. […] For FACS analysis, phycoerythrin (PE)-conjugated anti-mouse IgG (Jackson Immunologicals) was used. In order to monitor the transfection efficiency, Green Fluorescent Protein (GFP) was co-transfected with the OR. The intensity of receptor cell surface expression was calculated as the ratio of PE and GFP expression. 7-aminoactinomycin D (Calbiochem) was added before flow cytometry to mark dead cells which were excluded from the analysis. The gate and mean of PE positive cells was normalized by GFP values. Luciferase assay. […] All luminescence values were divided by the Renilla Luciferase activity to control for transfection efficiency in a given well. […] Each comparison was performed in triplicate; statistical significance was assessed by t-test (uncorrected for multiple comparisons). […] For all remaining odorant pairs the Pearson correlation between EC50 vectors and the Euclidean distance between descriptor vectors was calculated. The Pearson correlation between these two sets of distances was then measured. […]

[4] = target: T3, human odorant receptors (ORs) (Homo sapiens, UniProt Q9H255); test: CRE-luciferase assay of odorant receptor activation (Dual-Glo, Hana3A cells, RTP1S), dose-response EC50; type: cell-based; settings: receptor OR51E2; read-out: log EC50 of odorant at OR51E2 (0 = no response) (converted)
T3 construct: OR open reading frames were amplified from genomic DNA; expressed in transfected cells; host or cells: Hana3A cells, co-transfected with RTP1S, CRE-luciferase and pRL-SV40
T3 sequence (Q9H255 1-320): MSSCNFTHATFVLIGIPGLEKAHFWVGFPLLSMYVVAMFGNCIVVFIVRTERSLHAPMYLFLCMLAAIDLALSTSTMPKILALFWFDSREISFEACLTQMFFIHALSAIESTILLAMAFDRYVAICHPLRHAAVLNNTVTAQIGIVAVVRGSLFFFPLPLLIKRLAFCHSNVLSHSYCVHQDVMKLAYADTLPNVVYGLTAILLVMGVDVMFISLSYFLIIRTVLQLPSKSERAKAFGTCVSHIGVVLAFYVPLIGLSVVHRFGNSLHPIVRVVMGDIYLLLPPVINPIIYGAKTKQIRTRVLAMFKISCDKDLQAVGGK
Outline: as §1

MOR271-1 = test: CRE-luciferase assay of odorant receptor activation, enantiomeric pairs; type: cell-based, mouse; settings: CRE-luciferase in Hana3A cells; (+) versus (−) enantiomer; FIG. 6
Text: as §2

SMILES | log EC50, MOR138-1 [3] | log EC50, MOR139-1 [3] | log EC50, MOR189-1 [3] | log EC50, MOR272-1 [3] | log EC50, MOR273-1 [3] | other results
CC(C)(O)CCCC1=CCC(C=O)CC1 (stereo not shown) [Lyral] | – | – | – | – | – | EC50 [1]: 55.6 µM; EC50 [2]: 324 µM
CC1(C)C(=O)[C@]2(C)CCC1C2 (single isomer, unassigned; (-)) [(−) enantiomer of fenchone, (−)-Fenchone] | −4.481 | −3.879 | −4.239 | −3.558 | −5.231 | log EC50, MOR107-1 ([3]; receptor MOR107-1): −4.302; activation of MOR107-1 (MOR107-1): activated only by the (−) enantiomer
CCC(C(=O)O)c1ccccc1 (single isomer, unassigned; (+)) [(+) enantiomer of 2-phenylbutyric acid, (+)-2-Phenylbutyric acid] | – | – | – | – | – | log EC50, MOR2-1 ([3]; receptor MOR2-1): −3.499; response of MOR2-1 (MOR2-1): responded more strongly
CCC(=O)O [Propionic acid] | – | – | – | – | – | EC50 [4]: 109 µM
CC1(C)C(=O)[C@@]2(C)CCC1C2 (single isomer, unassigned; (+)) [(+) enantiomer of fenchone, (+)-Fenchone] | −4.626 | −3.773 | −4.423 | −4.35 | −4.073 | log EC50, MOR271-1 ([3]; receptor MOR271-1): −4.859; activation of MOR271-1 (MOR271-1): only activated by the (+) enantiomer
